Measured values from patent US4175123A, “Amino-sugar derivatives, process for their preparation and pharmaceutical composition thereof” (Bayer Aktiengesellschaft, priority 1976, dated 1979).
Each block holds one molecule with its values, some of them ahead of it.

How the values were obtained:
[1] = system: small intestine of fasting male Wistar rats (glucose absorption); experiment: In vitro method for the inhibition of glucose absorption (small intestine rings, D-glucose-14C); design: species or system rat (male Wistar); conditions: Rattus norvegicus, 2 min; 10 mg/ml; 2 minutes at 37° C., pH 7.4, D-glucose-14C 10 mg/ml
Experimental: In vitro method for the inhibition of glucose absorption
The upper part of the small intestine of fasting male Wistar rats is folded over and cut into rings about 3 mm wide. 10 of these rings (~150 mg moist weight) are incubated for 2 minutes at 37° C. in 5 ml of Krebs-Ringer bicarbonate buffer (pH 7.4) with D-glucose-^14 C (U) (10 mg/ml, 0.2 μCi/ml), with the addition of the active compounds. The washed and dried-off intestine rings are weighted, dissolved in 5 ml of Digestin (Merck)/isopropanol (1:1) and the radioactivity absorbed in the tissue is determined in a liquid scintillation counter. All values are corrected using the radioactivity absorbed in the tissue as D-mannitol-1-^14 C.
In vitro inhibitions of the glucose absorption by some selected compounds (10 mg/ml): […]

glucosidase [2] = experiment: Starch feeding test: postprandial blood sugar after oral starch + glucosidase inhibitor in fasting rats; type: in vivo, rat; conditions: for Blood sugar ± standard deviation, 15 minutes: starch control 131 ± 7.2, fasting control 60 ± 4.2; for Blood sugar ± standard deviation, 30 minutes: starch control 113 ± 9.2, fasting control 62 ± 3.4
Experimental: (§1) The in vivo activity of the compound was tested on some examples using the experimental arrangement described in the following text.
(§2) Oral administration of starch or sucrose causes a rise in the blood sugar in warm-blooded animals, provided that the carbohydrates are enzymatically degraded in the small intestine to monosaccharides. The inhibition of their enzymatic hydrolysis by glucosidase inhibitors causes a reduced rise in the blood sugar.
(§3) In order to detect the action of glucosidase inhibitors, 6 fasting rats receive perorally, 1 g of broiled starch or 2.5 g of sucrose/kg in the form of an aqueous suspension or in the form of an aqueous solution (starch and sucrose control respectively). An equal number of rats receive the glucosidase inhibitor in the dose indicated, together with the same amount of the carbohydrate concerned. An equal volume of physiological sodium chloride solution is administered orally to a further six rats (control). After administration of the carbohydrate concerned±glucosidae inhibitor, the postprandial change in blood sugar is measured, at the times indicated, in blood from the postorbital venous plexus in an auto-analyser according to the method of W. S. Hoffmann [J biol. Chem 120, 51 (1937)].

glucosidase [3] = experiment: Sucrose feeding test: postprandial blood sugar after oral sucrose + glucosidase inhibitor in fasting rats; type: in vivo, rat
Experimental: as §1, §2, §3

[4] = biological target: T1, intestinal disaccharidase complex (saccharase) (Sus scrofa, UniProt P56729); experiment: In vitro saccharase inhibition test; type: biochemical, pig; conditions: for specific inhibitory activity (saccharase inhibitor units per gram): pH 6.25, 37° C., 20 minutes, sucrose substrate
T1 construct: both subunits cut from one SI precursor
T1 sequence (P56729 with tags, fused parts or gaps): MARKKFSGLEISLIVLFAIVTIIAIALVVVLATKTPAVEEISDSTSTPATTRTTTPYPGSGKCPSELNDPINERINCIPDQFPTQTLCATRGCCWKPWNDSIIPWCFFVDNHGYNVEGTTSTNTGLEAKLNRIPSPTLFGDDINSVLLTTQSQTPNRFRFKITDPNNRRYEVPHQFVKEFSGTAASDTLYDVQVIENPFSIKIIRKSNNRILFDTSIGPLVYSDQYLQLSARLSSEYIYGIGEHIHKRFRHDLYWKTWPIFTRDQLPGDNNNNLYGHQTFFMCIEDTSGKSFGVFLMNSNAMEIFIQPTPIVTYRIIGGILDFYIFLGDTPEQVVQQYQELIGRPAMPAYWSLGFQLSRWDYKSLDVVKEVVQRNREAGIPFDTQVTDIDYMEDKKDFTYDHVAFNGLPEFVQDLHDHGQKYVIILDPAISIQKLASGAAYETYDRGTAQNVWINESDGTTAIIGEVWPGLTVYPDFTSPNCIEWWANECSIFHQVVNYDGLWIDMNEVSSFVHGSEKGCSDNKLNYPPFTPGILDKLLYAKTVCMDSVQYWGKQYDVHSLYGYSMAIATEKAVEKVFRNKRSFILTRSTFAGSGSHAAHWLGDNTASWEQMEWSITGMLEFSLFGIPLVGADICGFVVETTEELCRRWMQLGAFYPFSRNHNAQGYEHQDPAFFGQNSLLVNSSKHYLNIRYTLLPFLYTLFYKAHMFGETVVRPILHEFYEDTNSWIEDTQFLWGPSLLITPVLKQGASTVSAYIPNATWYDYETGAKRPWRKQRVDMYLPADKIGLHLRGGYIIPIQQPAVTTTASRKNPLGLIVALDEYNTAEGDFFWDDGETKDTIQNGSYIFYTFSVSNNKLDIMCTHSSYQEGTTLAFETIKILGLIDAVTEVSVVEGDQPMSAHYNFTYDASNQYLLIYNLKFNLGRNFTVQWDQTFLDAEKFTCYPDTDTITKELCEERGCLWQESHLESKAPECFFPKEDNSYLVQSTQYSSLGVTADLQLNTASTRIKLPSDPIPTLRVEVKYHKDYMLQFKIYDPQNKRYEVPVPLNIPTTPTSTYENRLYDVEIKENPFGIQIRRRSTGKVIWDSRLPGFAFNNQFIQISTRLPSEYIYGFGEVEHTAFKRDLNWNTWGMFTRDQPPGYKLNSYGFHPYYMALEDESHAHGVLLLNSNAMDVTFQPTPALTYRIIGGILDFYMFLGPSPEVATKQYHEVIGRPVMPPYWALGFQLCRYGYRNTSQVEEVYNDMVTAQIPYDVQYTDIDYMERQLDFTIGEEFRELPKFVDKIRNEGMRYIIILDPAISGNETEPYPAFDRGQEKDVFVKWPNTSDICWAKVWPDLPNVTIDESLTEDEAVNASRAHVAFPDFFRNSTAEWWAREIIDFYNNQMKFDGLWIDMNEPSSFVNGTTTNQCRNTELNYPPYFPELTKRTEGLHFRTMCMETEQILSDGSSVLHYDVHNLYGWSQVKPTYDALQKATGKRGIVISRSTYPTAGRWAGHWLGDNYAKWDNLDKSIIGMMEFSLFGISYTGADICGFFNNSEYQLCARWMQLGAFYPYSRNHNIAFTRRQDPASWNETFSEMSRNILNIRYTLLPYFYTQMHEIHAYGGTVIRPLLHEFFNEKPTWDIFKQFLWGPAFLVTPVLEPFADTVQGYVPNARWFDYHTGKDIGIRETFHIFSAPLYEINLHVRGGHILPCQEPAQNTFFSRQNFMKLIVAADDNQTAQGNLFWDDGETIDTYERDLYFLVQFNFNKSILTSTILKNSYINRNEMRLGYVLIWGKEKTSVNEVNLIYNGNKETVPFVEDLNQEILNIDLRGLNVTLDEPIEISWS
Description: In vitro saccharase inhibition test
The in vitro saccharase inhibition test makes it possible to determined the enzyme inhibitory activity of a sample by comparing the activity of the solubilised intestinal disaccharidase complex in the presence of the inhibitor with its activity in the absence (so-called 100% value) of the inhibitor. A virtually glucose-free (<100 ppm) saccharose is used here as the substrate, which determines the specificity of the inhibition test; the enzyme activity determination is based on the colorometric determination of liberated glucose by means of glucoseoxydase, peroxydase and 2,2-azino-di-[3-ethyl-benzthiazoline-6-sulphonate] (=ABTS) as the chromogen.
A saccharase inhibitor unit (SIU) is defined as that inhibitory activity which reduces a given saccharolytic activity in a defined test batch by one unit (saccharase unit=SU); the saccharase unit is defined here as that enzyme activity which, under given conditions, in one minute splits 1 μmol of sucrose and thus leads to the liberation of 1 μmol each of glucose, which is determine in the test, and fructose, which is not detected in the test.
The intestinal disaccharidase complex is obtained from pig's small intestine mucosa by trypsin digestion, precipitation from 66% ethanol at -20° C., taking up of the precipitate in 100 mM phosphate buffer of pH 7.0 and concluding dialysis against the same buffer.
100 μl of a dilution of the intestinal disaccharidase complex in 0.1 M maleate buffer of pH 6.25 are added to 10 μl of a sample solution which is diluted so that the extinction of the test batch is at least 10%, but not more than 25%, below that of the 100% value, and the mixture is pre-incubated for 10 minutes at 37° C. The dilution of the disaccharidase complex is to be adjusted to an activity of 0.05 SU/ml. […] In order to develop the colour, the mixture is incubated for 30 minutes at 37° C., after which it is diluted with 2 ml of tris buffer and measured photometrically at 420 nm against a reagent blank (with enzyme but without sucrose). […]

[5] = 0.92 mg/kg perorally + 1 g starch/kg
[6] = 0.65 mg/kg perorally + 1 g starch/kg

Compound: C[C@H]1O[C@H](O[C@H]2[C@H](O)[C@@H](O)[C@@H](O[C@H]3[C@H](O)[C@@H](O)[C@H](Oc4cccc(C(=O)O)c4)O[C@@H]3CO)O[C@@H]2CO)[C@H](O)[C@@H](O)[C@@H]1N[C@H]1C=C(CO)[C@@H](O)[C@H](O)[C@H]1O [Example 1, 5, m-Carboxyphenyl-O-{C}-(1→4)-O-α-D-glcp-(1→4)-β-D- glucopyranoside]
inhibition at 10000 µg/mL [1]: > 50%

Compound: C[C@H]1O[C@H](O[C@H]2[C@H](O)[C@@H](O)[C@@H](O[C@H]3[C@H](O)[C@@H](O)[C@H](Oc4ccc(C(=O)O)cc4)O[C@@H]3CO)O[C@@H]2CO)[C@H](O)[C@@H](O)[C@@H]1N[C@H]1C=C(CO)[C@@H](O)[C@H](O)[C@H]1O [Example 1, 7, p-Carboxyphenyl-O-{C}-(1→4)-O-α-D-glcp-(1→4)-β-D- glucopyranoside]
inhibition at 10000 µg/mL [1]: 25 to 50%
Blood sugar ± standard deviation, 15 minutes (glucosidase [2]; [5]): 121 ± 7.7 mg/dL
Blood sugar ± standard deviation, 30 minutes (glucosidase [2]; [5]): 112 ± 4.3 mg/dL
Blood sugar ± standard deviation, 15 minutes (glucosidase [3]; 0.92 mg/kg perorally + 2.5 g sucrose/kg, sucrose control 128 ± 8.0, fasting control 60 ± 4.6): 110 ± 3.4 mg/dL
Blood sugar ± standard deviation, 30 minutes (glucosidase [3]; 0.92 mg/kg perorally + 2.5 g sucrose/kg, sucrose control 133 ± 8.7, fasting control 64 ± 3.7): 118 ± 14 mg/dL
Blood sugar ± standard deviation, 45 minutes (glucosidase [3]; 0.92 mg/kg perorally + 2.5 g sucrose/kg, sucrose control 134 ± 6.1, fasting control 73 ± 7.1): 112 ± 10 mg/dL
Blood sugar ± standard deviation, 60 minutes (glucosidase [3]; 0.92 mg/kg perorally + 2.5 g sucrose/kg, sucrose control 119 ± 10, fasting control 66 ± 4.2): 117 ± 9.0 mg/dL

Compound: C[C@H]1O[C@H](O[C@H]2[C@H](O)[C@@H](O)[C@@H](O[C@H]3[C@H](O)[C@@H](O)[C@H](Oc4ccc(O)cc4)O[C@@H]3CO)O[C@@H]2CO)[C@H](O)[C@@H](O)[C@@H]1N[C@H]1C=C(CO)[C@@H](O)[C@H](O)[C@H]1O [Example 1, 8, p-Hydroxyphenyl-O-{C}-(1→4)-O-α-D-glcp-(1→4)-β-D- glucopyranoside]
inhibition at 10000 µg/mL [1]: 25 to 50%
Blood sugar ± standard deviation, 15 minutes (glucosidase [2]; [6]): 112 ± 9.9 mg/dL
Blood sugar ± standard deviation, 30 minutes (glucosidase [2]; [6]): 109 ± 12 mg/dL
Blood sugar ± standard deviation, 15 minutes (glucosidase [3]; 0.65 mg/kg perorally + 2.5 g sucrose/kg, sucrose control 128 ± 8.0, fasting control 60 ± 4.6): 112 ± 3.1 mg/dL
Blood sugar ± standard deviation, 30 minutes (glucosidase [3]; 0.65 mg/kg perorally + 2.5 g sucrose/kg, sucrose control 133 ± 8.7, fasting control 64 ± 3.7): 114 ± 6.3 mg/dL
Blood sugar ± standard deviation, 45 minutes (glucosidase [3]; 0.65 mg/kg perorally + 2.5 g sucrose/kg, sucrose control 134 ± 6.1, fasting control 73 ± 7.1): 119 ± 9.4 mg/dL
Blood sugar ± standard deviation, 60 minutes (glucosidase [3]; 0.65 mg/kg perorally + 2.5 g sucrose/kg, sucrose control 119 ± 10, fasting control 66 ± 4.2): 112 ± 4.3 mg/dL

Compound: C[C@H]1O[C@H](O[C@H]2[C@H](O)[C@@H](O)[C@@H](O[C@H]3[C@H](O)[C@@H](O)[C@H](Oc4ccc(C(C)(C)C)cc4)O[C@@H]3CO)O[C@@H]2CO)[C@H](O)[C@@H](O)[C@@H]1N[C@H]1C=C(CO)[C@@H](O)[C@H](O)[C@H]1O [Example 1, 9, p-tert-Butylphenyl-O-{C}-(1→4)-O-α-D-glcp-(1→4)-β-D glucopyranoside]
inhibition at 10000 µg/mL [1]: > 50%
Blood sugar ± standard deviation, 15 minutes (glucosidase [3]; 3.0 mg/kg perorally + 2.5 g sucrose/kg, sucrose control 134 ± 13, fasting control 71 ± 3.7): 85 ± 4.8 mg/dL
Blood sugar ± standard deviation, 30 minutes (glucosidase [3]; 3.0 mg/kg perorally + 2.5 g sucrose/kg, sucrose control 116 ± 20, fasting control 70 ± 5.3): 83 ± 7.9 mg/dL
Blood sugar ± standard deviation, 45 minutes (glucosidase [3]; 3.0 mg/kg perorally + 2.5 g sucrose/kg, sucrose control 125 ± 8.6, fasting control 77 ± 5.5): 88 ± 3.4 mg/dL
Blood sugar ± standard deviation, 60 minutes (glucosidase [3]; 3.0 mg/kg perorally + 2.5 g sucrose/kg, sucrose control 112 ± 15, fasting control 78 ± 7.3): 92 ± 9.4 mg/dL

Compound: CCCCCCCCCCCCCCCCO[C@@H]1O[C@H](CO)[C@@H](O[C@H]2O[C@H](CO)[C@@H](O[C@H]3O[C@H](C)[C@@H](N[C@H]4C=C(CO)[C@@H](O)[C@H](O)[C@H]4O)[C@H](O)[C@H]3O)[C@H](O)[C@H]2O)[C@H](O)[C@H]1O [Example 4, 18, n-Hexadecyl-O-{C}-(1→4)-O-α-D-glcp-(1→4)-β-D-glucopyranoside]
inhibition at 10000 µg/mL [1]: > 50%

specific inhibitory activity (saccharase inhibitor units per gram) [4]: 68,000 SIU/g
Compound: C[C@H]1O[C@H](O[C@H]2[C@H](O)[C@@H](O)[C@@H](O[C@H]3[C@H](O)[C@@H](O)C(O)O[C@@H]3CO)O[C@@H]2CO)[C@H](O)[C@@H](O)[C@@H]1N[C@H]1C=C(CO)[C@@H](O)[C@H](O)[C@H]1O (stereo partly drawn) [compound of the formula I (page 2) with m=0 and n=2]

specific inhibitory activity (saccharase inhibitor units per gram) [4]: 65,000 SIU/g
Compound: C[C@H]1O[C@H](O[C@H]2[C@H](O)[C@@H](O)[C@@H](O[C@H]3[C@H](O)[C@@H](O)C(O)O[C@@H]3CO)O[C@@H]2CO)[C@H](O)[C@@H](O)[C@@H]1N[C@H]1C=C(CO)[C@@H](O)[C@H](O)[C@H]1O (stereo partly drawn) [compound with P+q=2]

in vitro sucrose inhibitory activity ([4]; isolated isomer): 19,000 SIU/g
Compound: C[C@H]1O[C@H](O[C@H]2[C@H](O)[C@@H](O)[C@@H](O[C@H]3[C@H](O)[C@@H](O)[C@@H](O[C@H]4[C@H](O)[C@@H](O)C(O)O[C@@H]4CO)O[C@@H]3CO)O[C@@H]2CO)[C@H](O)[C@@H](O)[C@@H]1N[C@H]1C=C(CO)[C@@H](O)[C@H](O)[C@H]1O (stereo partly drawn) [isomers with p=0 and q=3]
